Columns and labels:
[1] = biological target: T1, HIV integrase (Human immunodeficiency virus type 1 group M subtype B, UniProt P04585); experiment: 3'processing/strand transfer combined assay; format: biochemical
Experimental: (§1) A combined 3′-processing/strand transfer assay procedure similar to that published (Ovenden et al. Phytochemistry. 2004 December; 65(24):3255-9.) was used. This assay was adapted to a 96 well plate format. Briefly, 400 ng of […] is incubated with 30 nM substrate DNA, consisting of annealed U5 LTR sequence oligonucleotides tagged with Digoxigenin (DIG; 5′-[…]-DIG-3′) or biotin (5′-Bio-[…]-3′) so that each substrate has either a DIG or Bio tag on opposite strands. Reactions are carried out for 2 hrs at 37° C., products generated as a result of 3′processing and strand transfer activity are bound to streptavidin plates and detected with using anti-DIG-alkaline phosphatase conjugate and p-nitro phenyl phosphate substrate.

[2] = system: HIV; experiment: Inhibition of HIV replication (extracellular p24); format: cell-based; conditions: Human immunodeficiency virus 1; concentration inhibiting HIV p24 production to 50% of no drug controls
Experimental: Cells are seeded into 96 well microtitre plates at 50,000 cells per 50 ul per well in RF-10 containing 2 μg/mL polybrene (RF-10/2). Compounds are prepared to 4× final concentration in RF-10/2, and 30 μL added to cells. Virus (40 μL in RF-10/2 containing 1600 pfu) is added to each well or 40 μL RF-10/2 for negative controls and for assaying compound cytotoxicity. After 24 hrs, an additional 90 μL of media or media containing 1× compound is added to each well. At 4 days post infection, 100 μL of media is removed from each well and replaced with 100 μl of fresh media with or without compound. Forty eight hours later supernatants are harvested and levels of extracellular p24 determined. Supernatants are diluted 1 in 10,000 and p24 levels assayed using the Vironostika p24 assay kit. EC50 is calculated as the concentration required to inhibit HIV p24 production to 50% that of no drug controls.

[3] = biological target: T1, HIV integrase; experiment: Strand transfer specific assay; format: biochemical; conditions: Table 8 cells marked (ST) / (ST assay): strand transfer specific
Experimental: as §1
The strand transfer specific assay is of similar format to that of the 3′processing/strand transfer combined assay except that it uses a biotinylated substrate that represents a pre-processed LTR end (5′-Bio-[…]-3′).

[4] = Table 8 cells that name no assay, taken as the 3'processing/strand transfer combined assay, read-out: IC50

Row | Structure (SMILES) | IC50 [1, 4] [µM] | further results
1 | N#Cc1c(-c2ccoc2)cc(-c2ccc(N3CCOCC3)cc2)nc1OCc1c(C(=O)O)csc1Br [compound 14906] | < 10 | –
2 | N#Cc1c(-c2ccoc2)cc(-c2ccc(N3CCOCC3)cc2)nc1OCc1ccc(C(=O)O)s1 [compound 14483] | – | EC50 [2]: < 10 µM; IC50 [1]: 10 to 50 µM
3 | CCOc1cnc(-c2cc(-c3ccc(N4CCOCC4)cc3)nc(OCc3csc(C(=O)O)c3)c2C#N)o1 [compound 15044] | 10 to 50 | –
4 | CCOc1cnc(-c2cc(-c3ccc(N4CCOCC4)cc3)nc(OCc3ccc(C(=O)O)cc3Br)c2C#N)o1 [compound 15303] | – | IC50 [3]: < 10 µM
5 | N#Cc1c(-c2oncc2C(=O)O)cc(-c2ccc(N3CCOCC3)cc2)nc1OCc1ccc(C(=O)O)s1 [compound 15435] | – | IC50 [3]: < 10 µM
6 | N#Cc1c(-c2ccoc2)cc(-c2ccc(N3CCOCC3)cc2)nc1OCc1nc(C(=O)O)cs1 [compound 14693] | < 10 | –
7 | CCOc1cnc(-c2cc(-c3ccc(N4CCOCC4)cc3)nc(OCc3sc(C(=O)O)cc3C#N)c2C#N)o1 [compound 15424] | – | IC50 [3]: < 10 µM
8 | Cc1cc(-c2cc(-c3ccc(N4CCOCC4)cc3)nc(OCc3ccc(C(=O)O)s3)c2C#N)on1 [compound 14959] | 10 to 50 | –
9 | N#Cc1c(-c2ccoc2)cc(-c2ccc(N3CCOCC3)cc2)nc1OCc1ccc(C(=O)O)cc1 [compound 14353] | < 10 | –
10 | Cc1cc(C(=O)O)ccc1COc1nc(-c2ccc(N3CCOCC3)cc2)cc(-c2ccoc2)c1C#N [compound 14499] | < 10 | –
11 | Cc1cc(-c2cc(-c3ccc(N4CCOCC4)cc3)nc(OCc3csc(C(=O)O)c3)c2C#N)on1 [compound 15045] | < 10 | –
12 | Cc1cc(-c2cc(-c3ccc(N4CCOCC4)cc3)nc(OCc3ccc(C(=O)O)cc3Br)c2C#N)on1 [compound 15300] | – | IC50 [3]: < 10 µM
13 | N#Cc1c(-c2ccoc2)cc(-c2ccc(N3CCOCC3)cc2)nc1OCc1nc(C(=O)O)co1 [compound 14761] | 10 to 50 | –
14 | CCOc1cnc(-c2cc(-c3ccc(N4CCOCC4)cc3)nc(OCc3ccsc3C(=O)O)c2C#N)o1 [compound 14963] | 10 to 50 | –
15 | N#Cc1cc(C(=O)O)sc1COc1nc(-c2ccc(N3CCOCC3)cc2)cc(-c2ccoc2)c1C#N [compound 14905] | < 10 | –

— patent publication US20100009973A1, “Integrase Inhibitors 3” (AVEXA LIMITED, priority 2006, published 2010)
